13 compounds from ChEMBL document CHEMBL1201862, “PubChem BioAssay data set” (2004) can be followed below.

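In this assay, cells in 96-well plates receive the compound at five concentrations for 48 hours. Endpoints are linearly interpolated between the surrounding concentrations. GI50 = concentration required for 50% inhibition of growth.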 The source made the active and inactive calls. Cut-off read from the data, not from the text of the source: active = GI50 up to about 1.1 µM and inactive = higher.

Common to all, as to test: NCI anticancer screen, dose series, 48 h
Test [1] deals with A549.
The test system of test [2] is UACC-257.
Test [3] deals with SK-MEL-5.
The test system of test [4] is KM12.
Test [5] relates to HOP-92.
Test [6] relates to SNB-19.
Test [7] concerns NCI-H460.
Test [8] concerns SF-295.
In test [9] the test system is RPMI-8226.
In test [10] the test system is LXFL 529.
Test [11] concerns ACHN.
In test [12] the test system is TK-10.
Test [13] deals with KM-20L2.
Test [14] concerns EKVX.
For test [15], the system named is UO-31.
The subject of test [16] is NCI-H23.
Test [17] deals with HCC 2998.

For `CN(C)CCC(=O)/C=C\c1ccccc1`, the GI50 in [1] is 21.6 µM (inactive); in test [2], 17.3 µM (inactive); in [3], 17.6 µM (inactive); in test [4] it was 15 µM (inactive); in test [5] it was 16.6 µM (inactive); in [6], 39.2 µM (inactive). Moreover, the GI50 was 18.9 µM (inactive) in test [7]; 20.3 µM (inactive) in test [8]; 14.6 µM (inactive) in test [9]; 13.5 µM (inactive) in [10]; 18.2 µM (inactive) in [11]; 18.5 µM (inactive) in test [12]. For the same compound, the GI50 in test [13] is 30.6 µM (inactive); in test [14], 18.7 µM (inactive); in test [15], 17.6 µM (inactive).
For `CC1(C)OC2C(CCP(=O)(O)O)OC(c3nc(C(N)=O)cs3)C2O1` (centres undefined), the GI50 in [1], in [2], in test [4], in test [5], in test [6] and in test [7] was > 100 µM (inactive) throughout. Besides, the GI50 in [16], in test [9], in test [10], in test [11], in [12] and in [17] was > 100 µM (inactive) in each case. Besides, the GI50 in test [13], in test [14] and in test [15] was > 100 µM (inactive) in each case.
With `C[C@]12CC[C@H](OC(=O)Cc3ccc(N(CCCl)CCCl)cc3)CC1CC[C@@H]1C2CC[C@]2(C)NC(=O)CCC12` (some centres undefined), the GI50 was 14.6 µM (inactive) in [1]; 13.2 µM (inactive) in test [2]; 15.6 µM (inactive) in test [3]; 11 µM (inactive) in test [4]; 15.6 µM (inactive) in test [5]; 13 µM (inactive) in test [6]. The GI50 was 5.16 µM (inactive) in [7]; 11.8 µM (inactive) in test [16]; 11.8 µM (inactive) in [8]; 4.16 µM (inactive) in [9]; 8.3 µM (inactive) in test [10]; 4.04 µM (inactive) in test [11]. Moreover, the GI50 in test [12] was 19.9 µM (inactive); in test [17], 18.7 µM (inactive); in test [13], 5.58 µM (inactive); in test [15], 29.3 µM (inactive).
Turning to `O=C(Cc1ccccc1)NN1C(=O)C(Cl)C1c1cc(Br)ccc1O` (centres undefined), the GI50 in [1] is 10.1 µM (inactive); in test [2], 1.29 µM (inactive); in test [3], 7.59 µM (inactive); in [4], 9.48 µM (inactive); in test [6], 10.4 µM (inactive); in test [7] it was 2.2 µM (inactive). Also, the GI50 in test [16] is 4.43 µM (inactive); in test [8] it was 6.19 µM (inactive); in test [9], 3.72 µM (inactive); in test [10], 5.68 µM (inactive); in test [11] it was 2.76 µM (inactive); in test [12] it was 21.6 µM (inactive). In addition, the GI50 was 9.46 µM (inactive) in test [17], 9.64 µM (inactive) in test [13], 3.03 µM (inactive) in test [14] and 7.45 µM (inactive) in test [15].
Take `Cc1nc2sccn2c1C(=O)N/N=C1\SCC(=O)N1C`: the GI50 in test [1], in [2], in test [3], in test [4], in test [5] and in test [6] was > 100 µM (inactive) throughout. Also, the GI50 in test [7], in test [16], in [8], in test [9], in [10] and in test [11] was > 100 µM (inactive) throughout. Besides, the GI50 in [12], in [17], in test [13] and in test [14] was > 100 µM (inactive) in each case.
For `Cc1cc(Cl)cc2c1NC(=O)C2(O)CC(=O)c1ccc(F)cc1` (centres undefined), the GI50 in test [1] was 30.2 µM (inactive); in [2], 37.3 µM (inactive); in test [4], > 100 µM (inactive); in test [5], > 100 µM (inactive); in [6] it was > 100 µM (inactive); in test [7], 83.8 µM (inactive). The GI50 in test [16] is 61.1 µM (inactive); in test [8], 53.8 µM (inactive); in [9], 27.2 µM (inactive); in test [11], 32.5 µM (inactive); in test [12], > 100 µM (inactive); in test [17], 36.1 µM (inactive). Besides, the GI50 in [13] was > 100 µM (inactive); in [14] it was > 100 µM (inactive); in test [15], 47.6 µM (inactive).
`COC(=O)[C@@H](C)[C@H]1CC[C@@](C)(CCC2=C(C)CC3C=C(C)CCC3C2(C)C)OO1` (some centres undefined): the GI50 was 1.6 µM (inactive) in test [1]; 2.99 µM (inactive) in test [2]; 1.49 µM (inactive) in [3]; 1.42 µM (inactive) in [4]; 1.72 µM (inactive) in test [6]; 1.5 µM (inactive) in [7]. Moreover, the GI50 in [16] is 1.7 µM (inactive); in test [8], 1.79 µM (inactive); in [9], 1.65 µM (inactive); in test [10], 1.03 µM (active); in [11], 1.53 µM (inactive); in test [12], 1.91 µM (inactive). Besides, the GI50 in test [17] was 1.35 µM (inactive); in [13], 1.7 µM (inactive); in test [14], 1.64 µM (inactive); in test [15], 1.45 µM (inactive).
As to `O=C(O)CCCSC(=O)Nc1ccc(/N=N/c2ccccc2)cc1`, the GI50 in test [1], in test [2], in [4], in test [6], in [7] and in test [16] was > 100 µM (inactive) in each case. Moreover, the GI50 in test [8], in test [9], in [10], in test [11], in [12] and in test [17] was > 100 µM (inactive) in each case. For the same compound, the GI50 in test [13], in [14] and in [15] was > 100 µM (inactive) each time.
Consider `Cc1cc(C)c2[s+]snc2c1`, for which the GI50 in [1] is 95.1 µM (inactive); in test [2], 72.3 µM (inactive); in test [3], > 100 µM (inactive); in [4], 95.7 µM (inactive); in test [6], > 100 µM (inactive); in test [7] it was 75.7 µM (inactive). Further, the GI50 in test [16] is 54 µM (inactive); in [8], > 100 µM (inactive); in [10], 34.4 µM (inactive); in test [11], > 100 µM (inactive); in test [12], > 100 µM (inactive); in test [17], > 100 µM (inactive). The GI50 was > 100 µM (inactive) in test [13], > 100 µM (inactive) in test [14] and 39.5 µM (inactive) in [15].
On to `Cc1cc(-c2ccccc2)cc2[n+]1CC=C2.[O-][Cl+3]([O-])([O-])[O-]`, for which the GI50 is > 100 µM (inactive) in test [1]; > 100 µM (inactive) in test [2]; > 100 µM (inactive) in test [4]; 15.5 µM (inactive) in test [5]; > 100 µM (inactive) in test [6]; > 100 µM (inactive) in test [7]. In addition, the GI50 in test [16] is 59.2 µM (inactive); in [8], > 100 µM (inactive); in test [10], 58.3 µM (inactive); in [11], 51.4 µM (inactive); in test [12], 46.6 µM (inactive); in test [17] it was > 100 µM (inactive). The GI50 in test [13] was > 100 µM (inactive); in test [14], 54.6 µM (inactive); in test [15] it was 39.4 µM (inactive).
In the case of `Oc1ccccc1-c1cnnc(-c2ccccc2O)c1`, the GI50 in test [2] is 25.1 µM (inactive); in test [5] it was 24 µM (inactive); in test [9], 16.7 µM (inactive); in test [10], 21.5 µM (inactive); in test [11], 27.7 µM (inactive); in test [12] it was 28.7 µM (inactive). The figures for the GI50 in test [13], in test [14] and in test [15] were 43.5 µM (inactive), 24.1 µM (inactive) and 19.7 µM (inactive), respectively.
Turning to `CC(=O)O[C@H]1C(=O)[C@@]2(C)C(C(OC(=O)c3ccccc3)C3[C@@H](O)C(OC(=O)[C@@H](O)[C@H](NC(=O)c4ccccc4)c4ccc(C(F)(F)F)cc4)C(C)=C1C3(C)C)[C@]1(OC(C)=O)CO[C@@H]1C[C@@H]2O` (some centres undefined), the GI50 was 17.9 µM (inactive) in [1]; > 25 µM (inactive) in [2]; 8.26 µM (inactive) in [3]; > 25 µM (inactive) in test [6]; 23.9 µM (inactive) in [7]; > 25 µM (inactive) in [16]. Further, the GI50 in [8] is > 25 µM (inactive); in [9], 10.3 µM (inactive); in test [10], 15.2 µM (inactive); in test [11], > 25 µM (inactive); in test [12], > 25 µM (inactive); in test [17] it was 16.2 µM (inactive). Further, the figures for the GI50 in test [13], in test [14] and in [15] were 8.73 µM (inactive), > 25 µM (inactive) and 18.1 µM (inactive), respectively.
Turning to `CCOC1=C2C(C)(CCC3[C@@]4(C)C=CC(=O)C(C)(C)C4CC(O)[C@@]23C)C(c2ccoc2)C1=O` (some centres undefined), the GI50 in test [1] was 21.1 µM (inactive); in test [2] it was 23.7 µM (inactive); in test [3] it was 15.2 µM (inactive); in [4], 15.2 µM (inactive); in test [5] it was 17.9 µM (inactive); in [6], 27.2 µM (inactive). Also, the GI50 is 13.7 µM (inactive) in test [7]; 13.1 µM (inactive) in [16]; 12.8 µM (inactive) in test [8]; 15.6 µM (inactive) in [9]; 18.4 µM (inactive) in test [11]; 25.2 µM (inactive) in test [12]. The GI50 in [17] was 16.3 µM (inactive); in test [13], 17.1 µM (inactive); in test [14], 18.5 µM (inactive); in [15], 14.5 µM (inactive).
